Measured values: article PMC7721954, “Preclinical comparison of four [^18F, ^natGa]rhPSMA-7 isomers: influence of the stereoconfiguration on pharmacokinetics” (EJNMMI Research, 2020)

Legend:
[1] = system: LNCaP tumor-bearing mice; test: Differential uptake and excretion pattern of isomers after injection of the diastereomeric mixture (radio-HPLC); assay type: in vivo; settings: blood, liver, kidney and tumor, 30 min p.i., n = 4
Experimental: With the intention to identify even marginal differences in the in vivo behavior, all four [^18F, ^natGa]rhPSMA-7 isomers were co-evaluated in one single tumor-bearing mouse in order to quantify the differential uptake and excretion pattern of each isomer. For this purpose, the diastereomeric mixture [^18F, ^natGa]rhPSMA-7 was produced in high molar activity (AM) of 247–349 GBq/µmol (at end of synthesis) and the abundance of each isomer was determined by radio-HPLC. Mice (n = 4) were injected with [^18F, ^natGa]rhPSMA-7 (180–280 MBq, 0.9–1.0 nmol) and left under anesthesia. After 30 min p.i., they were sacrificed and urine, blood, liver, kidneys and tumor were collected and processed. Radioactivity was extracted from solid tissues by means of a Potter–Elvehjem tissue grinder (n = 1) or a ball mill (n = 3) and separated from the protein fraction by subsequent cartridge-based solid-phase extraction (SPE). Blood samples were diluted, centrifuged and the supernatant was purified by SPE (see supporting information). Urine and extracts from tissue samples were then analyzed by radio-HPLC to quantify the fraction of each isomer in each sample. Finally, the relative percentage difference between the abundance of each isomer in the injected diastereomeric mixture (values taken from the quality control) and the abundance of the respective isomer in each analyzed tissue or body fluid was calculated. […] PeakFit allows for automated nonlinear separation, analysis and quantification of HPLC elution profiles by deconvolution procedures that uses a Gaussian response function with a Fourier deconvolution/filtering algorithm (see Additional file 1: Fig. 7).
Extraction via the Potter-Elvehjem Tissue Grinder. Tumor and kidneys were separately homogenized in the tissue homogeniser with 1 mL of extraction buffer (850 μL 1 M HEPES pH 7.4, 100 μL 20 mM PMPA and 100 μL 1 M NaCl) for 30 min. The resulting homogenate was collected and centrifuged at 13000×g for 5 min. Subsequently, the supernatant was collected, centrifuged again (13000×g, 5 min) and loaded on a Strata X cartridge (33 μm Polymeric Reversed Phase 500 mg) preconditioned with 5 mL MeOH, followed by 5 mL H2O. After washing with 5 mL H2O, the cartridge was eluted with a 3:2 mixture (v/v) of MeCN in H2O supplemented with 1% TFA. For radio-HPLC analysis the eluates were diluted with water.
Extraction via the MM-400 Ball Mill. The samples (tumor, kidney, liver) were separately homogenized in a 2 mL tube together with 3 grinding balls (3 mm diameter) and 1 mL of extraction buffer (850 μL 1 M HEPES pH 7.4, 100 μL 20 mM PMPA and 100 μL 1 M NaCl) for 10 min at 30 Hz. The homogenate was centrifuged at 13 000×g for 5 min and the supernatant was collected. […]

[2] = target: T1, human serum albumin (Homo sapiens, UniProt P02768); test: Human serum albumin binding on Chiralpak HSA column; assay type: in vitro ADME
T1 construct: purchased
Experimental: Approximately 1 MBq of the ^18F-ligand was dissolved in 1 mL of a 1:1 mixture (v/v) of phosphate-buffered saline (PBS, pH 7.4) and n-octanol (n = 18–23). After vigorous mixing of the suspension for 3 min, the vial was centrifuged at 15,000 × g for 3 min and 100 μL aliquots of both layers were measured in a γ-counter. HSA binding of ^19F-^natGa-rhPSMA ligands was determined according to a previously published procedure.

[3] = system: LNCaP cells; test: Internalization into LNCaP cells relative to ([125I]I-BA)KuE; assay type: cell-based; settings: 1 h, 37 °C, percentage of reference ligand ([125I]I-BA)KuE, n = 3-6
Experimental: (§1) Competitive binding studies were determined on LNCaP cells (1.5 × 10^5 cells in 1 mL/well) after incubation at 4 °C for 1 h, using (((S)-1-carboxy-5-(4-([^125I]iodo)benzamido)pentyl)carbamoyl)-L-glutamic acid (([^125I]I-BA)KuE; 0.2 nM/well) as reference radioligand (n = 5–9). Internalization studies of the radiolabeled ligands (0.5 nM/well) were performed on LNCaP cells (1.25 × 10^5 cells in 1 mL/well) at 37 °C for 1 h and accompanied by ([^125I]I-BA)KuE (0.2 nM/well), as reference. Data were corrected for non-specific binding and normalized to the specific internalization observed for the reference (n = 3–6). A detailed description of the experimental procedures was previously published.

[4] = system: LNCaP tumor-bearing male CB-17 SCID mice; test: Biodistribution 1 h p.i.; assay type: in vivo
Experimental: (§2) LNCaP tumor xenografts were established in 6–8 weeks old male CB-17 SCID mice as described previously.
(§3) 1–3 MBq (0.2 nmol) of the [^18F, ^natGa]rhPSMA inhibitors were injected into the tail vein of LNCaP tumor-bearing male CB-17 SCID mice that were sacrificed 1 h post injection (p.i.) (n = 4 for 7.1, n = 5 for 7.2, n = 4 for 7.3, n = 5 for 7.4 and n = 3 for 7). Selected organs were removed, weighed, and measured in a γ-counter. For competition studies, 8 mg/kg of 2-PMPA (2-(Phosphonomethyl)-pentandioic acid) were co-administered (n = 3).

[5] = system: LNCaP tumor-bearing male CB-17 SCID mice; test: Biodistribution 1 h p.i. with competition (co-injection of 2-PMPA); assay type: in vivo; settings: co-injected with 2-PMPA (8 mg/kg), n = 3
Experimental: as §2, §3

[6] = target: T2, PSMA (Homo sapiens, UniProt Q04609); test: Competitive binding (IC50) on LNCaP cells vs ([125I]I-BA)KuE; settings: 1 h, 4 °C, n = 5-9, read-out: IC50 (binding affinity)
T2 construct: host or cells: LNCaP cells
Experimental: as §1

T2 sequence (Q04609 whole entry): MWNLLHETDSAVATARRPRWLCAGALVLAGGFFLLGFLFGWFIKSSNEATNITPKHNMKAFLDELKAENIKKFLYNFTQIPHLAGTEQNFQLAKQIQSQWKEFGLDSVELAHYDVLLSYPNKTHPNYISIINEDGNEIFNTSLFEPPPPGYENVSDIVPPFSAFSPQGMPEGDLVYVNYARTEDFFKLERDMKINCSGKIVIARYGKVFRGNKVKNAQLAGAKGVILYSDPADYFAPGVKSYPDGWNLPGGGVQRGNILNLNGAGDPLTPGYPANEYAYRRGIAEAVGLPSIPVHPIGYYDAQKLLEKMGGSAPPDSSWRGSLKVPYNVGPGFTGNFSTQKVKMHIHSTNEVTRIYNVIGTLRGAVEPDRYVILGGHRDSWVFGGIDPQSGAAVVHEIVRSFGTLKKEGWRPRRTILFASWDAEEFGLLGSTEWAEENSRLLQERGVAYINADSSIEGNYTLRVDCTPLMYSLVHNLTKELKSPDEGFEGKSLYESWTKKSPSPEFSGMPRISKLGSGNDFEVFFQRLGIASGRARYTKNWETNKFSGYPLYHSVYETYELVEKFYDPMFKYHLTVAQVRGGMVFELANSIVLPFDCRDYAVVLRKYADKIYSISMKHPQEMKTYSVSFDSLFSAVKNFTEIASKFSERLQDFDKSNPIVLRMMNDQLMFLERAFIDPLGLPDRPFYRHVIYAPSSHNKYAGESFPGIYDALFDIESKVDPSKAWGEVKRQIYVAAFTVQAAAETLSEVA
T1 sequence (P02768 25-609): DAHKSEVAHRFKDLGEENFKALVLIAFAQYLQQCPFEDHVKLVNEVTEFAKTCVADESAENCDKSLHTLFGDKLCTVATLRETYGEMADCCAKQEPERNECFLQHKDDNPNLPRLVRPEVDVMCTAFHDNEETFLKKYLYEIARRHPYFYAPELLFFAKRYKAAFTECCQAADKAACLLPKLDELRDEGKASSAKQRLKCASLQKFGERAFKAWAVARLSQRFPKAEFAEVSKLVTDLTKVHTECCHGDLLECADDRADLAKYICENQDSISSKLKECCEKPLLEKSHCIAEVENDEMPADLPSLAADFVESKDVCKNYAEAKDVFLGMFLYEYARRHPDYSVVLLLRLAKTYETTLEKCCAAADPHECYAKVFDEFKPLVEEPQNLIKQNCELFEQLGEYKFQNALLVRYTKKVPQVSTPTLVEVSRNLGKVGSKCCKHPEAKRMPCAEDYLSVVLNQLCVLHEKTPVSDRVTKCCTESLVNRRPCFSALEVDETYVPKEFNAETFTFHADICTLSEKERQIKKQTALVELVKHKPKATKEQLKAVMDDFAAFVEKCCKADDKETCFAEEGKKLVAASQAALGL

SMILES | Abundance (enrichment) of the isomer in tissue compared to time point of injection [1] | HSA-binding [2] [%] | Internalization (internalized activity) [3] | Biodistribution Adrenals [4] [% ID/g] | Biodistribution Blood [4] [% ID/g] | Biodistribution Bone [4] [% ID/g] | Biodistribution Heart [4] [% ID/g] | Biodistribution Intestine [4] [% ID/g] | Biodistribution Kidneys [4] [% ID/g] | Biodistribution Liver [4] [% ID/g] | Biodistribution Lung [4] [% ID/g] | Biodistribution Muscle [4] [% ID/g] | Biodistribution Pancreas [4] [% ID/g] | Biodistribution Spleen [4] [% ID/g] | Biodistribution Stomach [4] [% ID/g] | Biodistribution Tumor [4] [% ID/g] | Biodistribution Adrenals [5] [% ID/g] | Biodistribution Blood [5] [% ID/g] | Biodistribution Bone [5] [% ID/g] | IC50 [6] [nM] | further results
CC(C)(C)[Si]([18F])(c1ccc(C(=O)NC[C@@H](NC(=O)CC[C@@H](C(=O)O)N2CCN(CC(=O)[O-])CCN(CC(=O)[O-])CCN(CC(=O)[O-])CC2)C(=O)N[C@H](CCCCNC(=O)CCC(=O)NCCC[C@@H](NC(=O)CC[C@H](NC(=O)N[C@@H](CCC(=O)O)C(=O)O)C(=O)O)C(=O)O)C(=O)O)cc1)C(C)(C)C.[Ga+3] [[^18F, ^natGa]rhPSMA-7.3] | higher | 97 | 161 ± 9 % of reference | 2.2 ± 0.83 | 0.96 ± 0.24 | 0.38 ± 0.32 | 0.87 ± 0.17 | 0.35 ± 0.07 | 292 ± 45.1 | 0.69 ± 0.13 | 2.2 ± 0.35 | 0.33 ± 0.15 | 0.63 ± 0.44 | 16.6 ± 2.6 | 0.44 ± 0.23 | 18.3 ± 7.2 | 0.07 ± 0.09 | 0.55 ± 0.14 | 0.34 ± 0.22 | – | Biodistribution Heart [5]: 0.26 ± 0.04 % ID/g; Biodistribution Intestine [5]: 0.94 ± 0.97 % ID/g; Biodistribution Kidneys [5]: 15.5 ± 2.2 % ID/g; Biodistribution Liver [5]: 0.46 ± 0.14 % ID/g; Biodistribution Lung [5]: 0.69 ± 0.10 % ID/g; Biodistribution Muscle [5]: 0.09 ± 0.02 % ID/g; Biodistribution Pancreas [5]: 0.11 ± 0.02 % ID/g; Biodistribution Spleen [5]: 0.35 ± 0.02 % ID/g; Biodistribution Stomach [5]: 0.76 ± 0.74 % ID/g; Biodistribution Tumor [5]: 1.5 ± 0.4 % ID/g
CC(C)(C)[Si](F)(c1ccc(C(=O)NC[C@H](NC(=O)CC[C@H](C(=O)O)N2CCN(CC(=O)[O-])CCN(CC(=O)[O-])CCN(CC(=O)[O-])CC2)C(=O)N[C@H](CCCCNC(=O)CCC(=O)NCCC[C@@H](NC(=O)CC[C@H](NC(=O)N[C@@H](CCC(=O)O)C(=O)O)C(=O)O)C(=O)O)C(=O)O)cc1)C(C)(C)C.[Ga+3] [[^18F, ^natGa]rhPSMA-7.2] | – | – | – | – | – | – | – | – | – | – | – | – | – | – | – | – | – | – | – | 3.7 ± 1 | –
CC(C)(C)[Si](F)(c1ccc(C(=O)NC[C@@H](NC(=O)CC[C@@H](C(=O)O)N2CCN(CC(=O)[O-])CCN(CC(=O)[O-])CCN(CC(=O)[O-])CC2)C(=O)N[C@H](CCCCNC(=O)CCC(=O)NCCC[C@@H](NC(=O)CC[C@H](NC(=O)N[C@@H](CCC(=O)O)C(=O)O)C(=O)O)C(=O)O)C(=O)O)cc1)C(C)(C)C.[Ga+3] [[^18F, ^natGa]rhPSMA-7.3] | – | – | – | – | – | – | – | – | – | – | – | – | – | – | – | – | – | – | – | 4.4 ± 1.1 | –
CC(C)(C)[Si](F)(c1ccc(C(=O)NC[C@@H](NC(=O)CC[C@H](C(=O)O)N2CCN(CC(=O)[O-])CCN(CC(=O)[O-])CCN(CC(=O)[O-])CC2)C(=O)N[C@H](CCCCNC(=O)CCC(=O)NCCC[C@@H](NC(=O)CC[C@H](NC(=O)N[C@@H](CCC(=O)O)C(=O)O)C(=O)O)C(=O)O)C(=O)O)cc1)C(C)(C)C.[Ga+3] [[^18F, ^natGa]rhPSMA-7.1] | – | – | – | – | – | – | – | – | – | – | – | – | – | – | – | – | – | – | – | 6.9 ± 1.4 | –
CC(C)(C)[Si]([18F])(c1ccc(C(=O)NC[C@H](NC(=O)CC[C@H](C(=O)O)N2CCN(CC(=O)[O-])CCN(CC(=O)[O-])CCN(CC(=O)[O-])CC2)C(=O)N[C@H](CCCCNC(=O)CCC(=O)NCCC[C@@H](NC(=O)CC[C@H](NC(=O)N[C@@H](CCC(=O)O)C(=O)O)C(=O)O)C(=O)O)C(=O)O)cc1)C(C)(C)C.[Ga+3] [[^18F, ^natGa]rhPSMA-7.2] | lowest enrichment in blood, liver and kidney, but also the lowest uptake by tumors | 98 | 192 ± 16 % of reference | 1.3 ± 0.8 | 0.56 ± 0.20 | 0.31 ± 0.24 | 0.32 ± 0.13 | 0.18 ± 0.07 | 87.6 ± 28.8 | 0.35 ± 0.08 | 0.89 ± 0.38 | 0.13 ± 0.07 | 0.21 ± 0.08 | 10.1 ± 6.3 | 0.19 ± 0.08 | 6.5 ± 2.3 | 0.07 ± 0.10 | 1.1 ± 0.31 | 0.57 ± 0.39 | – | Biodistribution Heart [5]: 0.47 ± 0.09 % ID/g; Biodistribution Intestine [5]: 0.33 ± 0.10 % ID/g; Biodistribution Kidneys [5]: 10.9 ± 1.0 % ID/g; Biodistribution Liver [5]: 0.46 ± 0.07 % ID/g; Biodistribution Lung [5]: 1.1 ± 0.32 % ID/g; Biodistribution Muscle [5]: 0.09 ± 0.03 % ID/g; Biodistribution Pancreas [5]: 0.12 ± 0.05 % ID/g; Biodistribution Spleen [5]: 0.26 ± 0.07 % ID/g; Biodistribution Stomach [5]: 0.21 ± 0.06 % ID/g; Biodistribution Tumor [5]: 1.0 ± 0.13 % ID/g
CC(C)(C)[Si](F)(c1ccc(C(=O)NC[C@H](NC(=O)CC[C@@H](C(=O)O)N2CCN(CC(=O)[O-])CCN(CC(=O)[O-])CCN(CC(=O)[O-])CC2)C(=O)N[C@H](CCCCNC(=O)CCC(=O)NCCC[C@@H](NC(=O)CC[C@H](NC(=O)N[C@@H](CCC(=O)O)C(=O)O)C(=O)O)C(=O)O)C(=O)O)cc1)C(C)(C)C.[Ga+3] [[^18F, ^natGa]rhPSMA-7.4] | – | – | – | – | – | – | – | – | – | – | – | – | – | – | – | – | – | – | – | 3.6 ± 0.7 | –
